Experimental data taken from publication PMC6278394, “Screening of Angiotensin-I Converting Enzyme Inhibitory Peptides Derived from Caulerpa lentillifera” (Molecules, 2018).
Ends that are not written are not given here.

Tests used:
[1] = target: T1, ACE (EC 3.4.15.1) from rabbit lungs (Oryctolagus cuniculus, UniProt P12822); experiment: in vitro ACE inhibitory assay (HHL substrate, hippuric acid by RP-HPLC); assay type: biochemical; conditions: synthetic peptide; HHL 2.5 mM, borate buffer pH 8.3, 37 °C, HPLC read-out at 228 nm; triplicate, nonlinear regression (Graphpad Prism 6.0)
T1 construct: ACE (EC 3.4.15.1) from rabbit lungs; purchased Sigma Chemical Co. (St. Louis, MO, USA); host or cells: rabbit lung tissue
T1 sequence (P12822 34-1310): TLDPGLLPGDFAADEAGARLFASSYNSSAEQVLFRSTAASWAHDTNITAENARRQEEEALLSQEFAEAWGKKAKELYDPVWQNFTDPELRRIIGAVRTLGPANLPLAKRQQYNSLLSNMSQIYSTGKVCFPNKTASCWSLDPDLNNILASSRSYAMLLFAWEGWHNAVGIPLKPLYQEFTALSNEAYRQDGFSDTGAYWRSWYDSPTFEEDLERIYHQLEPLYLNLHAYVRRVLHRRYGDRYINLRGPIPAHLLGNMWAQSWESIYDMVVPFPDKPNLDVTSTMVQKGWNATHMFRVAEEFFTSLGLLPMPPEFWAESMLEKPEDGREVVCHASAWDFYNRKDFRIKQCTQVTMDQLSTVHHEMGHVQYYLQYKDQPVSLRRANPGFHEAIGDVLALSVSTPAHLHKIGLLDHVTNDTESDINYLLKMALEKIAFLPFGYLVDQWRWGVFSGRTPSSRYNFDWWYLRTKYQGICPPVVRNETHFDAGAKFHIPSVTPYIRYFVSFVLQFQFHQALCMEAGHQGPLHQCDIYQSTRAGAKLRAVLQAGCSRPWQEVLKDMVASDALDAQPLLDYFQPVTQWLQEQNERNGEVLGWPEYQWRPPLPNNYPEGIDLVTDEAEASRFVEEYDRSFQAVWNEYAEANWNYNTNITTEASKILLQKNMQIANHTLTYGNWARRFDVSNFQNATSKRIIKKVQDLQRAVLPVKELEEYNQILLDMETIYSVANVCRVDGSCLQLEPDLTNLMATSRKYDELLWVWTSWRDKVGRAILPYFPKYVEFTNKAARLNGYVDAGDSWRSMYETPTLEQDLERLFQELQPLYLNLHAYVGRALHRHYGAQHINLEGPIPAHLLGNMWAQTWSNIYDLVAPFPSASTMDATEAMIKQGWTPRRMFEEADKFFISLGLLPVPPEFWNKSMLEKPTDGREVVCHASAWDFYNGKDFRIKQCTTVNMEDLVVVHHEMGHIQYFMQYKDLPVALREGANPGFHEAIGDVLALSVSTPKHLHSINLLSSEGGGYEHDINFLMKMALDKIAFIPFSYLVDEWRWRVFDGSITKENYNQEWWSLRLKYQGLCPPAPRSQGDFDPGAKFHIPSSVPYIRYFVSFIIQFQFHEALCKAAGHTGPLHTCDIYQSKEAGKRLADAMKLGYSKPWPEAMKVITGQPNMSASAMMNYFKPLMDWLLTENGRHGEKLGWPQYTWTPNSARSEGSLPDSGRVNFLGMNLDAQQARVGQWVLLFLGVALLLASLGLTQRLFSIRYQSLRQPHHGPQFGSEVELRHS
Protocol: The ACEI activity assay was performed according to a previous report with a slight modification. For each assay, 30 µL 2.5 mM Hippuryl-L-histidyl-L-leucine (HHL) was used as a substrate and added by 10 µL of testing sample (peptides) at a certain concentration in 200 mM borate buffer containing 300 mM NaCl (adjusted to pH 8.3). Blank sample using 10 µL of borate buffer and was added by the same substrate. The positive control was 10 µL of 10 µM captopril. All samples were pre-incubated at 37 °C for 5 min. Subsequently, 20 µL of ACE (0.05 mU/µL) in 200 mM borate buffer was added to the blank sample, positive control and testing sample. The reaction was incubated statically at 37 °C for 30 min and then incubated thermostatically using shaker incubation (200 rpm) at 37 °C for 30 min. […] The HHL and ACE’s hydrolyzed product, hippuric acid (HA), were quantitatively analyzed using HPLC equipped with a C18 column. […] The result of HA was detected by UV detector at 228 nm. The ACE inhibition (%) was determined according to the following equation:ACE Inhibition (%) = [1 − (ΔAInhibitor/ΔABlank)] × 100
Here, ΔAInhibitor and ΔABlank were the peak areas of HA in testing and blank samples, respectively. […] The IC50 was determined using Graphpad Prism 6.0 (GraphPad Software, Inc., La Jolla, CA, USA) by a nonlinear regression of ACE inhibition result (%) caused by different concentrations of inhibitor.

[2] = target: T1, ACE (EC 3.4.15.1) from rabbit lungs; experiment: pre-incubation experiment of ACEI peptide with ACE (stability towards ACE, inhibitor type); assay type: biochemical; conditions: peptide 100 µM; for ACE inhibition activity without pre-incubation: before pre-incubation with ACE; for ACE inhibition activity after pre-incubation: pre-incubated with ACE (0.05 mU/µL) 3 h at 37 °C, then HHL 2.5 mM 1 h at 37 °C
Protocol: Since ACE is a dipeptidyl-carboxypeptidase, whether the ACEI peptides will be cleaved by ACE is a critical issue for an in vivo application. Pre-incubation of ACEI peptides with ACE before adding substrate is often used to monitor the reactivity between ACE and the ACEI peptide.
The stability of ACEI peptides towards peptidase ACE was determined according to the method described by Ruiz et al.. Briefly, ACEI peptide (at 100 µM) in 10 µL of deionized water was incubated with 20 µL of ACE (0.05 mU/µL) for 3 h at 37 °C. After that, 30 µL of 2.5 mM HHL was added and the reaction mixture was incubated at 37 °C for 1 h. The reaction was stopped by adding 60 µL 1 N HCl, and the inhibition degree of the peptide was calculated as in Section 3.5.

FDGIP [FP-5] was tested, and the IC50 [1] was 58.9 ± 0.68 µM, the “ACE inhibition activity without pre-incubation” value [2] was 78.89% and the “ACE inhibition activity after pre-incubation” value [2] was 76.47%.

In the case of AIDPVRA [AA-7], the IC50 [1] is reported as 65.8 ± 0.92 µM, the “decrease of inhibition activity after pre-incubation” value ([2]; 3 h pre-incubation with ACE at 37 °C) is reported as “about 10%” and the “ACE inhibition activity without pre-incubation” value [2] is reported as 68.07%. For the same substance, the “ACE inhibition activity after pre-incubation” value [2] was 57.89%.
